Data from patent US6610682B2, “Pharmaceutical compositions and methods for the treatment of arteriosclerosis” (Sankyo Company, Limited, priority 1996, dated 2003).

Columns and labels:
Type in all cases: in vivo, rabbit
[1] = system: WHHL rabbits; assay: Arterial sclerosis progress inhibitory effect: surface area of aortic lesions (Example 2, 31 weeks); details: oral, CS-866 0.5 mg/kg, pioglitazone 20 mg/kg, BRL-49653 2.5 mg/kg, alone or combined, autopsy in 31st week
Experimental: A certain amount of an agent was administered orally for 31 weeks to 2-3 months old WHHL rabbits, Watanabe genetically hyperlipemic rabbits: described supra (Biochimica et Biophysica Acta), etc., in groups of 5 to 7 animals each. Incidentally, food consumption was restricted to 100 g/day per animal. Blood samples were collected immediately before administration of the agent and 8, 16, 24 and 31 weeks after the start of administration to measure total cholesterol levels (mg/dl). There were no changes observed in any of the dose groups as compared with the control group to which no agents were administered. In addition, the test animals were subjected to autopsy in the 31st week to investigate the surface area of aortic lesions (%) and the incidence of xanthochromia in finger joints.

[2] = system: WHHL rabbits; assay: Arterial sclerosis progress inhibitory effect: surface area of aortic lesions (Example 1, 32 weeks); details: oral, CS-866 1 mg/kg, troglitazone 25 mg/kg, alone or combined, autopsy in 32nd week
Experimental: (§1) A certain amount of an agent was administered orally for 32 weeks to 2-3 months old WHHL rabbits, Watanabe genetically hyperlipemic rabbits: supra (Biochimica et Biophysica Acta), etc., in groups of 4 to 7 animals each. Incidentally, food consumption was restricted to 120 g/day per animal. Blood samples were collected immediately before administration of the agent and 4, 8, 12, 16, 20, 24, 28 and 32 weeks after the start of administration to measure total cholesterol levels (mg/dl). There were no changes observed in any of the dose groups as compared with the control group to which no agents were administered. The test animals were subjected to autopsy in the 32nd week to investigate the surface area of aortic lesions (%) and the incidence of xanthochromia in finger joints (%).

[3] = system: WHHL rabbits; assay: Incidence of xanthochromia in finger joints (Example 1, 32 weeks); details: oral, CS-866 1 mg/kg, troglitazone 25 mg/kg, alone or combined
Experimental: as §1

`CN(CCOc1ccc(CC2SC(=O)NC2=O)cc1)c1ccccn1` (centres unmarked) [BRL-49653, 5-[4-[2-[N-methyl-N-(pyridin-2-yl)amino]ethoxy]phenylmethyl]-2,4-thiazolidinedione] was tested, and the “Lesion surface area (%) Abdominal region” value [1] was 29 ± 4%, the “Lesion surface area (%) Arcuate region” value [1] was 83 ± 2% and the “Lesion surface area (%) Overall” value [1] was 52 ± 5%. The “Lesion surface area (%) Thoracic part” value [1] was 54 ± 12%.
With `CCCc1nc(C(C)(C)O)c(C(=O)OCc2oc(=O)oc2C)n1Cc1ccc(-c2ccccc2-c2nnn[nH]2)cc1` [CS-866, (5-methyl-2-oxo-1,3-dioxolen-4-yl)methyl 4-(1-hydroxy-1-methylethyl)-2-propyl-1-[2′-(1H-tetrazol-5-yl)biphenyl-4-ylmethyl]imidazole-5-carboxylate] the “Lesion surface area (%) Abdominal region” value [1] was 32 ± 8%, the “Lesion surface area (%) Arcuate region” value [1] was 66 ± 5% and the “Lesion surface area (%) Overall” value [1] was 44 ± 7%. For the same compound, the “Lesion surface area (%) Thoracic part” value [1] was 41 ± 10%, the “Lesion surface area (%) Abdominal region” value [2] was 19% and the “Lesion surface area (%) Arcuate region” value [2] was 68%. For the same compound, the “Lesion surface area (%) Overall” value [2] was 34%, the “Lesion surface area (%) Thoracic part” value [2] was 26% and the “Xanthochromia incidence (%) Forelimbs” value [3] was 100%. For the same compound, the “Xanthochromia incidence (%) Hindlimbs” value [3] was 100% and the “Xanthochromia incidence (%) Overall” value [3] was 100%.
For `CCc1ccc(CCOc2ccc(CC3SC(=O)NC3=O)cc2)nc1` (centres unmarked) [Pioglitazone, 5-[4-[2-(5-ethyl-pyridin-2-yl)ethoxy]phenylmethyl]-2,4-thiazolidinedione], the “Lesion surface area (%) Abdominal region” value [1] was 32 ± 6%, the “Lesion surface area (%) Arcuate region” value [1] was 65 ± 6% and the “Lesion surface area (%) Overall” value [1] was 52 ± 8%. For the same compound, the “Lesion surface area (%) Thoracic part” value [1] was 62 ± 12%.
For `Cc1c(C)c2c(c(C)c1O)CCC(C)(COc1ccc(CC3SC(=O)NC3=O)cc1)O2` (centres unmarked) [Troglitazone, 5-[4-(6-hydroxy-2,5,7,8-tetramethylchroman-2-ylmethoxy)benzyl]-2,4-thiazolidinedione], the “Lesion surface area (%) Abdominal region” value [2] was 32%, the “Lesion surface area (%) Arcuate region” value [2] was 80% and the “Lesion surface area (%) Overall” value [2] was 54%. For the same compound, the “Lesion surface area (%) Thoracic part” value [2] was 57%, the “Xanthochromia incidence (%) Forelimbs” value [3] was 93% and the “Xanthochromia incidence (%) Hindlimbs” value [3] was 86%. The “Xanthochromia incidence (%) Overall” value [3] was 89%.
